Data: patent publication US6844365B2, “Substances for use in treating psoriasis” (Laboratoire Medidom S.A., priority 2000, dated 2005)

Experiments:
TNF-α = TNF-α release from keratinocytes by ELISA; assay type: cell-based, human; conditions: 24 hours after UVB irradiation
Protocol: (§1) UV-B radiation was delivered with a battery of lamps (TL 20W/12RS UV-B Philips Medical) before and after treatment with diacerein.
(§2) In other experiments, UVB irradiation was delivered only after diacerein addition.
(§3) Before irradiation, the cells were washed once with PBS and irradiated in presence of PBS.
(§4) Controls were sham irradiated for identical periods as measured by International Light Research Radiometer (Newburyport, Mass.).
(§5) Quantitation of cytokine levels was performed by a quantitative two-site enzyme immunoassay according to manufacturer's instructions, using ELISA kits for IL-1, IL-6, IL-8 and TNF-α.
(§6) The sample concentration was determined by absorbance at 450 nm with the correction wavelength set at 540 nm.
As mentioned above, TNF-α is of great relevance in the pathomechanisms of psoriasis. Therefore, we wanted to evaluate the effect of diacerein on the release of this cytokine from human keratinocytes.

IL-6, TNF-α and LIF = conditions: prior knowledge; cited from earlier work
IL-6 = IL-6 release from keratinocytes by ELISA; assay type: cell-based, human
Protocol: as §1, §2, §3, §4, §5, §6
No constitutive levels of IL-6 are normally detected in human keratinocytes.
Therefore, IL-6 release was stimulated by UVB irradiation.

prostaglandin PGE2 = conditions: cited from earlier work
human keratinocytes = experiment: Viability of keratinocytes by trypan blue exclusion; assay type: cell-based; conditions: increasing doses, 24 and 96 hours, except 100 and 200 μM at 96 hours
Protocol: Human epidermal keratinocytes were obtained from foreskin by dispase II (5 mg/ml for 60 minutes at 37° C., Boehringer Mannheim, Germany) separation of epidermal sheets.
The epidermis was incubated in 0.25% trypsin/0.02% EDTA for 20 minutes a 37° C. and mechanically disaggregated.
The epidermal cell suspensions were plated (2.5×10^4/cm^2) on mytomicin C-treated 3T3-J2 cells (2.4×10^4/cm^2), ATCC, Rockville, Md., USA) and cultured in 5% CO2 humidified atmosphere in the keratinocyte growth medium: Dulbecco's modified Eagle's medium and Ham's F12 media (3:1 mixture, Biochrom KG, Berlin, Germany) containing fetal calf serum (10%, ICN Biomedicals, Aurora, Ohio), insulin ([…], Sigma, St.Louis, Mo., USA), transferrin ([…], Sigma), adenine (0.18 mM, Sigma), hydrocortisone ([…], Sigma), triiodothyronine (20 pM, Sigma), cholera toxin (0.1 nM, Sigma), epidermal growth factor (10 ng/ml, Sigma), 4 mM glutamine (Sigma), and penicillin/streptomycin (50 IU/ml, Biochrom.). […]
Cell viability was evaluated by trypan blue exclusion.
In order to understand the effects of diacerein on human keratinocytes, a possible alteration of vital parameters was evaluated by the trypan blue exclusion.

IL-8 = IL-8 release from keratinocytes by ELISA; assay type: cell-based, human
Protocol: as §1, §2, §3, §4, §5, §6
As TNF-α is a potent inducer of IL-8 in keratinocytes and plays an important role in the pathogenesis of psoriasis, the effect of diacerein on IL-8 was also evaluated after stimulating keratinocytes with TNF-α.

[1] = system: cytokines of the IL-1 family, especially IL-1β; conditions: prior knowledge; cited from earlier work
[2] = cited from earlier work
IL-1 = IL-1 release from keratinocytes by ELISA; assay type: cell-based, human
Protocol: as §1, §2, §3, §4, §5, §6
IL-1 is constitutively expressed in human keratinocytes. IL-1 release was measured after the addition of increasing doses of diacerein.

[3] = system: patients with mild to moderate psoriatic arthritis; experiment: Clinical trial of Artrodar (diacerein) in psoriasis with mild to moderate psoriatic arthritis; assay type: in vivo, human; conditions: for Ritchie articular index, hip sx: baseline Ritchie 2
Protocol: The aim of this study was to assess the efficacy and safety of diacerein in the treatment of psoriasis with mild to moderate psoratic arthritis.
The investigational drug, Artrodar® (Laboratoire Medidom S. A. (Geneva)), is a size 1 hard gelatin capsule.
Ten patients satisfying all the inclusion and exclusion criteria indicated below were tested.
Male or female patients over 18 years of age with • cutaneous involvement defined by the psoriasis area and severity index (PASI) (<15); • persistent negative latex test or ELISA for rheumatoid factors; • established diagnosis of mild to moderate severity psoriatic arthritis of at least 3 months duration characterized by oligoarthritis (<4 involved joints) and/or spondyloarthritis; • normal values for haematology and clinical chemistry values (ESR 1 h<30 mm, WBC with leucocyte differential count, RBC, Hb ([…]), platelets, creatinine, transaminases, alkaline phosphatase, bilirubin); • normal or drug-controlled blood pressure values; • failure to respond to topical (including emollients and coal tar) and phototherapy; • evidence of medically approved contraceptive methods in women of childbearing age; • written informed consent from each patient;
Exclusion criteria: • patient under 18 years of age; • positive rheumatoid factor (RF) or antinuclear antibodies (ANA) >1:80; • history of inflammatory bowel disease or evidence of another rheumatologic disorder; • ascertained individual sensitivity to diacerein or any of the components in the capsule; • chronic illness that, in the opinion of the Investigator, would limit successful participation in the trial; • treatment with slow acting drugs and/or corticosteroids during the month prior to study start; • patient who, in the judgement of the Investigator, […]. Treatment
Treatment was 2×50 mg capsules of Artrodar® (each capsule contains 50 mg diacerein) taken orally per day for 6 months.
One capsule was to be taken in the afternoon after lunch while the other was to be taken in the evening after dinner.
No slow acting disease modifying drugs for psoriatic arthritis or corticosteroids were allowed during one month prior to the start of the study and throughout the study.
Treatment with NSAIDs, analgesics and other drugs was kept constant during the study and the doses used were recorded every week.
The following were assessed at baseline and at regular intervals during the study: • The PASI index (Fredriksson and Petterson, 1978)^i for assessing cutaneous involvement. • Pain on activity (target joint) assessed using the VAS. • Ritchie articular index.
All adverse events either observed by the Investigator or reported by […] were recorded.

[4] = of 7 patients, 2×50 mg orally per day
[5] = patient one, 2nd visit, improved from Ritchie 1
[6] = patient three, 2nd visit, improved from Ritchie 2

## CC(=O)Oc1cccc2c1C(=O)c1c(OC(C)=O)cc(C(=O)O)cc1C2=O [diacerein, 4,5-bis(acetyloxy)-9,10-dihydro-9,10-dioxo-2-anthracene carboxylic acid]
TNF-α
  doses down-regulating UVB-induced TNF-α release: 50 to 200 µM
IL-6, TNF-α and LIF
  effect on IL-6 and other cytokines such as TNF-α and LIF: inhibit IL-6 and other cytokines such as TNF-α and LIF
IL-6; 24 hours after irradiation
  effect on UVB-induced IL-6 release: caused a reduction
IL-6; UVB-irradiated keratinocytes
  effect of timing of addition on IL-6 release: significantly more effective when added both before and after UVB light
IL-6; added both before and after UVB
  dose giving significant reduction in IL-6 release: 1 µM
IL-6; administered only before UVB
  dose necessary for down regulation of IL-6: 5 µM
IL-6; basic conditions, no UVB
  effect on IL-6 levels: did not affect
Prostaglandin PGE2; inferred from no effect on PGE2 production
  gastrotoxic potential: does not have gastrotoxic potential
Prostaglandin PGE2; prior knowledge
  effect on prostaglandin PGE2 production: not to effect prostaglandin PGE2 production
Human keratinocytes
  alteration of keratinocyte viability: did not cause any significant alteration
IL-8; 24 hours after UVB irradiation
  doses with significant reduction of UVB-induced IL-8 levels: 5 to 100 µM
IL-8; UVB-irradiated keratinocytes
  effect of timing of addition on IL-8 release: more effective when given both before and after UVB irradiation
IL-8; keratinocytes stimulated with TNF-α, 24 hours
  doses down-regulating TNF-α-induced IL-8 release: 50 to 200 µM
IL-8; normal conditions, no stimulus
  effect on IL-8: unaffected
[1]
  effect on synthesis and activity of pro-inflammatory catabolic cytokines of the IL-1 family, especially IL-1β: inhibit the synthesis and activity
[2]; extensive toxicology studies
  carcinogenic potential: does not show carcinogenic potential
[2]; prior use in osteoarthritis and rheumatoid arthritis, toxicology studies
  tolerability: well tolerated
IL-1; 24 hours after UVB irradiation
  effect on UVB-induced increase in IL-1 release: prevented this effect
IL-1; UVB-irradiated keratinocytes
  dose down-regulating IL-1 release almost to baseline levels: 0.1 µM
IL-1; before versus after UVB irradiation
  effect of timing of administration on IL-1 release: more powerful when administered before UVB irradiation
IL-1; normal conditions, no UVB
  effect on constitutive levels of IL-1: did not affect
[3]; all treated patients, caused drop-out
  adverse effect reported: diarrhea in one patient
[3]; [4]
  number of patients who responded after 1 month: 4 patients
  number of patients who responded after 2 months: 2 patients
  number of patients who responded after 3 months: 1 patients
[3]; patient five, 2nd visit Jul. 14, 2000, 1 month treatment, baseline PASI 10.1
  psoriasis status: Psoriasis: status unchanged.
[3]; patient five, 2nd visit, baseline 60 mm
  Pain on VAS: Pain on VAS = 50 mm
[3]; patient five, 2nd visit, baseline Ritchie 1
  Ritchie articular index, knee pain (bilateral): had knee pain (bilateral) (Ritchie 1).
[3]; patient five, treatment period only 1 month
  Responder: No as
[3]; patient four
  Responder: Yes
[3]; patient four, 2nd visit Jul. 13, 2000, baseline 13.6
  PASI score: PASI score = 6.7
[3]; patient four, 2nd visit, baseline 50 mm
  Pain on VAS: Pain on VAS = 50 mm.
[3]; patient four, 2nd visit, baseline Ritchie 1
  Ritchie articular index, shoulder sx: Shoulder sx: Unchanged
[3]; patient four, 2nd visit
  Ritchie articular index, hip sx: Hip sx: Unchanged
[3]; patient four, 2nd visit, improved from Ritchie 1
  Ritchie articular index, TMC dx: TMC dx: Improved from Ritchie 1 to 0
[3]; patient four, 3rd visit Aug. 30, 2000, baseline 13.6
  PASI score: PASI score = 2.2
[3]; patient four, 3rd visit, baseline 50 mm
  Pain on VAS: Pain on VAS = 50 mm.
[3]; patient four, 3rd visit, baseline Ritchie 1
  Ritchie articular index, shoulder sx: Shoulder sx: Unchanged
[3]; patient four, 3rd visit
  Ritchie articular index, hip sx: Hip sx: Unchanged
[3]; patient four, 3rd visit, improved from Ritchie 1
  Ritchie articular index, TMC dx: TMC dx: Improved from Ritchie 1 to 0
[3]; patient one (stopped after 4 weeks)
  Responder: Yes
[3]; patient one, 2nd visit Aug. 18, 2000, after stopping treatment in mid-July and mild return, baseline 4.8
  PASI score: PASI score = 2.4
[3]; [5]
  Ritchie articular index, TMC sx: TMC sx improved from Ritchie 1 to 0
  Ritchie articular index, shoulder sx: Shoulder sx: improved from Ritchie 1 to 0
[3]; patient one, 2nd visit, improved from Ritchie 2
  Ritchie articular index, tibiotarsal joint sx: Tibiotarsal joint sx: improved from Ritchie 2 to 0.
[3]; patient seven
  Responder: Yes
[3]; patient seven, 2nd visit Jun. 6, 2000, baseline 9.6
  PASI score: PASI score = 6.6
[3]; patient seven, 2nd visit, baseline 60 mm
  Pain on the VAS: Pain on the VAS = 50 mm.
[3]; patient seven, 3rd visit Jul. 3, 2000, baseline 9.6
  PASI score: PASI = score 5.0
[3]; patient seven, 3rd visit, baseline 60 mm
  Pain on the VAS: Joint swelling decreased in all joints. Pain on the VAS = 40 mm.
[3]; patient seven, 4th visit Aug. 18, 2000, baseline 9.6
  PASI score: PASI score = 0.9
[3]; patient six
  Responder: Yes
[3]; patient six, 2nd visit, after 2 months treatment, baseline PASI 8.1
  psoriasis status: disappeared in June.
[3]; patient six, 3rd visit Jul. 19, 2000 (psoriasis reappeared), baseline 8.1
  PASI score: PASI score = 3.9
[3]; patient six, 4th visit, baseline Ritchie 3
  Ritchie articular index, right knee: 0
[3]; patient six, right knee, 3rd visit, baseline 50 mm
  Pain on the VAS: VAS = 50 mm.
[3]; patient six, right knee, 4th visit Aug. 29, 2000, baseline 50 mm
  pain (VAS): 1 cm
[3]; patient three
  Responder: Yes
[3]; patient three, 2nd visit Jul. 20, 2000, baseline 6.9
  PASI score: PASI score = 6.9
[3]; [6]
  Ritchie articular index, wrist dx: Wrist dx: improved from Ritchie 2 to 1.
  Ritchie articular index, wrist sx: Wrist sx: improved from Ritchie 2 to 0
[3]; patient three, 3rd visit
  Ritchie articular index, wrist sx: Wrist sx: Ritchie 0
[3]; patient three, 3rd visit Aug. 24, 2000
  Morning stiffness: Morning stiffness = 30 minutes.
[3]; patient three, 3rd visit Aug. 24, 2000, baseline 6.9
  PASI score: PASI score = 3.9
[3]; patient three, 3rd visit, improved from Ritchie 1
  Ritchie articular index, wrist dx: Arthritis: Wrist dx: improved from Ritchie 1 to 0.
[3]; patient two (stopped after 1 month, diarrhea)
  Responder: Yes
[3]; patient two, 2nd visit Jul. 20, 2000, baseline 0.6
  PASI score: PASI score = 0.1
[3]; patient two, 2nd visit, printed as improved from Ritchie 1, baseline Ritchie 2
  Ritchie articular index, 2nd MCF dx: Arthritis: 2nd MCF, dx, improved from Ritchie 1 to Ritchie 0.
[3]; seven patients who took Diacerein one month or more, 2×50 mg capsules orally per day
  patients who responded to treatment (improvement on PASI score): 100%
